Earlier results, collected in patent US10296863B2, “Wireless sensor devices for post-harvest crop quality and pest management” (priority 2017, dated 2019).
Like-named read-outs stand apart in the source and are kept apart here.

What was measured:
[1] = system: tobacco moth and susceptible cigarette beetle
[2] = system: resistant cigarette beetle
[3] = tobacco temperature 16-20 °C (61-68 °F), 300 ppm phosphine at the bale/case centre

For `P` [phosphine], which “Minimum Exposure Time to achieve 100% control” value [1, 3] is on record?
The value was 6 days.

What about the “Minimum Exposure Time to achieve 100% control” value ([1]; tobacco temperature >20 °C (>68 °F), 200 ppm phosphine at the bale/case centre) of the same molecule?
The value was 4 days.

And the “Minimum Exposure Time to achieve 100% control” value [2, 3]?
The value was 12 days.

What about the “Minimum Exposure Time to achieve 100% control” value ([2]; tobacco temperature 20-25 °C (68-77 °F), 300 ppm phosphine at the bale/case centre) of the same molecule?
The value was 12 days.

And the “Minimum Exposure Time to achieve 100% control” value ([2]; tobacco temperature 20-25 °C (68-77 °F), 700 ppm phosphine at the bale/case centre)?
The value was 10 days.

And the “Minimum Exposure Time to achieve 100% control” value ([2]; tobacco temperature >25 °C (>77 °F), 300 ppm phosphine at the bale/case centre)?
The value was 12 days.

And the “Minimum Exposure Time to achieve 100% control” value ([2]; tobacco temperature >25 °C (>77 °F), 600 ppm phosphine at the bale/case centre)?
Its value is 6 days.
